PubChem BioAssay AID2060886 (Molecular Pharmacology Branch, DTP, NCI, 2025)

Test system: 653999-131-R-J2-PDC complex spheroids, growth inhibition
Test: Anticancer human tumor 653999-131-R-J2-PDC patient-derived lung adenocarcinoma cell line growth inhibition [RAS]
Conditions: for IC50: curve of first compound; for viability, T/C: stronger effect = lower value
Procedure, shortened: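 Agents were tested in combination matrices in half-log decrements from a top concentration at or near clinical Cmax (10 microM if undetermined). Targets were multi-cell spheroids of tumour lines plus HUVEC and MSC stromal cells.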

[1] = second compound 0.000949 µM, first compound 0.0316 µM
[2] = second compound 0.000949 µM, first compound 0.1 µM
[3] = second compound 0.000949 µM, first compound 0.316 µM
[4] = second compound 0.000949 µM, first compound 1 µM
[5] = second compound 0.000949 µM, first compound 3.16 µM
[6] = second compound 0.000949 µM, first compound 10 µM
[7] = second compound 0.003 µM, first compound 0.0316 µM
[8] = second compound 0.003 µM, first compound 0.1 µM
[9] = second compound 0.003 µM, first compound 0.316 µM
[10] = second compound 0.003 µM, first compound 1 µM
[11] = second compound 0.003 µM, first compound 3.16 µM
[12] = second compound 0.003 µM, first compound 10 µM
[13] = second compound 0.00949 µM, first compound 0.0316 µM
[14] = second compound 0.00949 µM, first compound 0.1 µM
[15] = second compound 0.00949 µM, first compound 0.316 µM
[16] = second compound 0.00949 µM, first compound 1 µM
[17] = second compound 0.00949 µM, first compound 3.16 µM
[18] = second compound 0.00949 µM, first compound 10 µM
[19] = second compound 0.03 µM, first compound 0.0316 µM
[20] = second compound 0.03 µM, first compound 0.1 µM
[21] = second compound 0.03 µM, first compound 0.316 µM
[22] = second compound 0.03 µM, first compound 1 µM
[23] = second compound 0.03 µM, first compound 3.16 µM
[24] = second compound 0.03 µM, first compound 10 µM
[25] = second compound 0.0949 µM, first compound 0.0316 µM
[26] = second compound 0.0949 µM, first compound 0.1 µM
[27] = second compound 0.0949 µM, first compound 0.316 µM
[28] = second compound 0.0949 µM, first compound 1 µM
[29] = second compound 0.0949 µM, first compound 3.16 µM
[30] = second compound 0.0949 µM, first compound 10 µM
[31] = second compound 0.3 µM, first compound 0.0316 µM
[32] = second compound 0.3 µM, first compound 0.1 µM
[33] = second compound 0.3 µM, first compound 0.316 µM
[34] = second compound 0.3 µM, first compound 1 µM
[35] = second compound 0.3 µM, first compound 3.16 µM
[36] = second compound 0.3 µM, first compound 10 µM
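Note: spheroids exposed to the agents for seven days before the readout.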

CC1(O)CCCC1n1c(=O)c(C(F)F)cc2cnc(NC3CCN(S(C)(=O)=O)CC3)nc21 (stereo unspecified) + CCn1c(-c2cc(N3CCN(C)CC3)cnc2C(C)OC)c2c3cc(ccc31)-c1csc(n1)CC(NC(=O)C1CC1C)C(=O)N1CCCC(N1)C(=O)OCC(C)(C)C2
IC50 (second compound 0.000949 µM): 8400 nM
IC50 (second compound 0.003 µM): 57.9 nM
IC50 (second compound 0.00949 µM): < 31.6 nM
IC50 (second compound 0.03 µM): < 31.6 nM
IC50 (second compound 0.0949 µM): < 31.6 nM
IC50 (second compound 0.3 µM): < 31.6 nM
viability, T/C [1]: 67.8%
viability, T/C [2]: 48.4%
viability, T/C [3]: 57.4%
viability, T/C [4]: 49%
viability, T/C [5]: 73%
viability, T/C [6]: 37.7%
viability, T/C [7]: 52.4%
viability, T/C [8]: 49.5%
viability, T/C [9]: 40.1%
viability, T/C [10]: 49.9%
viability, T/C [11]: 47.2%
viability, T/C [12]: 38.5%
viability, T/C [13]: 43%
viability, T/C [14]: 28.5%
viability, T/C [15]: 28.5%
viability, T/C [16]: 28.1%
viability, T/C [17]: 39%
viability, T/C [18]: 29.1%
viability, T/C [19]: 36.6%
viability, T/C [20]: 23.9%
viability, T/C [21]: 25.8%
viability, T/C [22]: 24.9%
viability, T/C [23]: 30.7%
viability, T/C [24]: 20%
viability, T/C [25]: 27.2%
viability, T/C [26]: 20.3%
viability, T/C [27]: 18.8%
viability, T/C [28]: 19.4%
viability, T/C [29]: 26.7%
viability, T/C [30]: 24.7%
viability, T/C [31]: 19.2%
viability, T/C [32]: 18.5%
viability, T/C [33]: 25.2%
viability, T/C [34]: 20.8%
viability, T/C [35]: 20.3%
viability, T/C [36]: 21%

CCC(CC)c1cc(NC2CCC(N)C2)n2nccc2n1 (stereo unspecified) + CCn1c(-c2cc(N3CCN(C)CC3)cnc2C(C)OC)c2c3cc(ccc31)-c1csc(n1)CC(NC(=O)C1CC1C)C(=O)N1CCCC(N1)C(=O)OCC(C)(C)C2
IC50 (second compound 0.000949 µM): 1280 nM
IC50 (second compound 0.003 µM): 722 nM
IC50 (second compound 0.00949 µM): 195 nM
IC50 (second compound 0.03 µM): < 31.6 nM
IC50 (second compound 0.0949 µM): < 31.6 nM
IC50 (second compound 0.3 µM): < 31.6 nM
viability, T/C [1]: 84.6%
viability, T/C [2]: 101%
viability, T/C [3]: 91.2%
viability, T/C [4]: 59.9%
viability, T/C [5]: 12%
viability, T/C [6]: 15%
viability, T/C [7]: 59.1%
viability, T/C [8]: 88.6%
viability, T/C [9]: 84.2%
viability, T/C [10]: 39.2%
viability, T/C [11]: 10.5%
viability, T/C [12]: 18.8%
viability, T/C [13]: 55.8%
viability, T/C [14]: 56.5%
viability, T/C [15]: 45.6%
viability, T/C [16]: 26.4%
viability, T/C [17]: 16.4%
viability, T/C [18]: 17.4%
viability, T/C [19]: 38.8%
viability, T/C [20]: 51%
viability, T/C [21]: 29.6%
viability, T/C [22]: 20.4%
viability, T/C [23]: 12.5%
viability, T/C [24]: 18.8%
viability, T/C [25]: 29.3%
viability, T/C [26]: 27.8%
viability, T/C [27]: 28.9%
viability, T/C [28]: 12.1%
viability, T/C [29]: 11.7%
viability, T/C [30]: 18.9%
viability, T/C [31]: 29.8%
viability, T/C [32]: 24.9%
viability, T/C [33]: 26.4%
viability, T/C [34]: 12.7%
viability, T/C [35]: 13.3%
viability, T/C [36]: 17.5%

CCN1CCN(Cc2ccc(Nc3ncc(F)c(-c4cc(F)c5nc(C)n(C(C)C)c5c4)n3)nc2)CC1 + CCn1c(-c2cc(N3CCN(C)CC3)cnc2C(C)OC)c2c3cc(ccc31)-c1csc(n1)CC(NC(=O)C1CC1C)C(=O)N1CCCC(N1)C(=O)OCC(C)(C)C2
IC50 (second compound 0.000949 µM): > 1000 nM
IC50 (second compound 0.003 µM): 94.8 nM
IC50 (second compound 0.00949 µM): 5.9 nM
IC50 (second compound 0.03 µM): < 3.16 nM
IC50 (second compound 0.0949 µM): < 3.16 nM
IC50 (second compound 0.3 µM): < 3.16 nM
viability, T/C (second compound 0.000949 µM, first compound 0.00316 µM): 81.5%
viability, T/C (second compound 0.000949 µM, first compound 0.01 µM): 62.4%
viability, T/C [1]: 66.9%
viability, T/C [2]: 58.1%
viability, T/C [3]: 62.6%
viability, T/C [4]: 58%
viability, T/C (second compound 0.003 µM, first compound 0.00316 µM): 63.4%
viability, T/C (second compound 0.003 µM, first compound 0.01 µM): 66.9%
viability, T/C [7]: 62.3%
viability, T/C [8]: 49.5%
viability, T/C [9]: 46.2%
viability, T/C [10]: 47.5%
viability, T/C (second compound 0.00949 µM, first compound 0.00316 µM): 56.6%
viability, T/C (second compound 0.00949 µM, first compound 0.01 µM): 45.9%
viability, T/C [13]: 37%
viability, T/C [14]: 30.4%
viability, T/C [15]: 34%
viability, T/C [16]: 33.1%
viability, T/C (second compound 0.03 µM, first compound 0.00316 µM): 24.2%
viability, T/C (second compound 0.03 µM, first compound 0.01 µM): 30.9%
viability, T/C [19]: 30.9%
viability, T/C [20]: 24.4%
viability, T/C [21]: 26.3%
viability, T/C [22]: 29.4%
viability, T/C (second compound 0.0949 µM, first compound 0.00316 µM): 30.6%
viability, T/C (second compound 0.0949 µM, first compound 0.01 µM): 26.6%
viability, T/C [25]: 15.7%
viability, T/C [26]: 22.2%
viability, T/C [27]: 24.3%
viability, T/C [28]: 25.4%
viability, T/C (second compound 0.3 µM, first compound 0.00316 µM): 23.3%
viability, T/C (second compound 0.3 µM, first compound 0.01 µM): 24.7%
viability, T/C [31]: 17.5%
viability, T/C [32]: 17.7%
viability, T/C [33]: 18.1%
viability, T/C [34]: 29.2%
